Test system: Bim
Assay: Bim protein in ARPE-19 cells under oxidative stress
Assay type: cell-based, human
Conditions: ARPE-19 cells under stress
Description: (§1) FIG. 7. (A) VLC-PUFA and ELV1 and ELV2 compounds mediated downregulation of Bim in ARPE-19 cells under stress. Bim, another class of Bcl2 family, has been tested like Bid in this figure to confirm our previous results. VLC-PUFA and elovanoids protected against the upregulation of Bim by OS, similar to Bid, in RPE cells under stress. (B) VLC-PUFA and elovanoids mediated effect on Bim downregulation in ARPE-19 cells under stress.
as §1, with “7—A)” for “7. (A)”, “[…]” for “downregulation”, “protected” for “protected against”

CC/C=C\C[C@H](O)\C=C/C=C/C=C/[C@H](O)C/C=C\C/C=C\CCCCCCCCCCCCCCC(=O)O [ELV2, (16Z,19Z,22R,23E,25E,27Z,29S,31Z)-22,29-dihydroxytetratriaconta-16,19,23,25,27,31-hexaenoic acid]
effect on Bim upregulation by OS (FIG. 7): potent downregulation
